Data published in publication PMC9246869, “Allosteric inhibition of PPM1D serine/threonine phosphatase via an altered conformational state” (Nature Communications, 2022).
pKd: −log10 of the molar value. Values joined by “and” are separate entries in the source; they are usually repeats but may differ in a detail not shown here. Equal values may be shown once. Read-outs that look alike come from different tables or passages of the source.

What was measured:
[1] = target: T1, PPM1DΔflap (Homo sapiens, UniProt O15297, DEL219-231/DEL235-284/E287S/S285N); experiment: Isothermal titration calorimetry (ITC); format: binding; settings: Sup Fig 5A
T1 construct: PPM1D1–218-GGSNGS-288–420 (PPM1D∆flap); His(6)-SUMO (N, cleaved yes); made in house; host or cells: E. coli BL21 (DE3)
T1 sequence (O15297 with tags, fused parts or gaps DEL219-231/DEL235-284/S285N/E287S): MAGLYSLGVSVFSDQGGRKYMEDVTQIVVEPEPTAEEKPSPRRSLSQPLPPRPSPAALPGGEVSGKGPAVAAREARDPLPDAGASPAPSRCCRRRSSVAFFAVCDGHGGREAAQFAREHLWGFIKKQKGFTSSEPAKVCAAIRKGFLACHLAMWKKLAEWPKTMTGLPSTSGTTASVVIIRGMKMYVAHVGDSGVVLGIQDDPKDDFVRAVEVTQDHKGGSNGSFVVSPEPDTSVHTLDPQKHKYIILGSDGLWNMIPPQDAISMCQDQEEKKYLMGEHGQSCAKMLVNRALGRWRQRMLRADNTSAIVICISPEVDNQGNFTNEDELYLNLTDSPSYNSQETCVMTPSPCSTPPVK
Description: (§1) Assessments of the analog of GSK2830371 (analog 1d) binding to wild-type and mutant proteins were conducted using an Auto-iTC200 microcalorimeter (Malvern) (see section on synthesis of analog 1d below). The protein was dialyzed extensively into 25 mM HEPES (pH 7.4), 150 mM NaCl, 10 mM MgCl2 and 1 mM TCEP. The dialyzed protein was used to prepare fresh working solutions of protein (20 µM) and analog 1d (200 µM) in 2% DMSO (v/v) in the same buffer. Titrations were performed at 25 °C and consisted of a single initial injection of 0.4 µL, followed by 19 injections of 2 µL of compound into a sample cell containing wild-type or mutant PPM1D, with an interval of 150 s between successive injections. The reference power and stirring speed were set at […] and 1000 RPM, respectively. Heat of dilution and mixing were obtained from injections of analog 1d into ITC buffer lacking protein and subtracted from the integrated data before curve fitting. Thermodynamic data were analyzed using Origin 7.0 software and fitted by non-linear regression to the model for a single binding site.

[2] = target: T2, PPM1DΔhinge (Homo sapiens, UniProt O15297, DEL155-163/G166S/M164G/T165G); experiment: Isothermal titration calorimetry (ITC); format: binding; settings: Sup Fig 5C
T2 construct: PPM1D1–154-GGS-167–420 (PPM1D∆hinge); His(6)-SUMO (N, cleaved yes); made in house; host or cells: E. coli BL21 (DE3)
T2 sequence (O15297 with tags, fused parts or gaps DEL155-163/M164G/T165G/G166S): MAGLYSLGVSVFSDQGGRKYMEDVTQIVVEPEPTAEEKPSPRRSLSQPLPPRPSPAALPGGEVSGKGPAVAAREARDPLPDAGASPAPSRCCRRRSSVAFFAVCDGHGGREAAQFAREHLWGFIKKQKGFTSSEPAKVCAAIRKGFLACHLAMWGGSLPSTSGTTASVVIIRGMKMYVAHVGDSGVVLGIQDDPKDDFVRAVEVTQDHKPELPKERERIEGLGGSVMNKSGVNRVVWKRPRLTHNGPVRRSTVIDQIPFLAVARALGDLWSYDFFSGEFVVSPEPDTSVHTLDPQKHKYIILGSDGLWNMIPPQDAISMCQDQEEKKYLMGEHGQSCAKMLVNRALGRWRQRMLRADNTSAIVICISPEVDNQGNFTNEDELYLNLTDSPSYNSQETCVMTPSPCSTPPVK
Description: as §1

[3] = target: T3, PPM1D1–420 (Homo sapiens, UniProt O15297); experiment: Sedimentation velocity analytical ultracentrifugation (SV-AUC); settings: PPM1D1–420 15 µM with 3x compound, 2% DMSO
T3 construct: PPM1D1–420 was PCR-amplified from the synthesized gene with BsaI sites; His(6)-SUMO (N, cleaved yes); made in house; host or cells: E. coli BL21 (DE3)
T3 sequence (O15297 1-420): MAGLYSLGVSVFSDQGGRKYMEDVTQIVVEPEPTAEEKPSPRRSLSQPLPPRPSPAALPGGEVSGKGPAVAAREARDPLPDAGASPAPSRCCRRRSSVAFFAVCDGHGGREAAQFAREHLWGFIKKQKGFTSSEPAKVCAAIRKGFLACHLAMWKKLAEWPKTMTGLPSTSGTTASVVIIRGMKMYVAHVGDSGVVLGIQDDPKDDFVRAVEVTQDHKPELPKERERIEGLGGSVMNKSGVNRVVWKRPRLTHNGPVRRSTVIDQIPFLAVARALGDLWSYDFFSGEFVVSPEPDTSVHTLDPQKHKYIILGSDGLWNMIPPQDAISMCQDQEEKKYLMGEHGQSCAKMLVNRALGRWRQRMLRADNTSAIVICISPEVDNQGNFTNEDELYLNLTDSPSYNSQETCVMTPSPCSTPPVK
Description: AUC experiments were done using an Optima ultracentrifuge (Beckman Instruments). Proteins were dialyzed at 4 °C prior to each experiment in 20 mM HEPES (pH 7.4), 100 mM NaCl, 5 mM MgCl2, 0.1 mM TCEP. Sedimentation velocity (SV-AUC) experiments were conducted using an An50 Ti rotor at 50,000 rpm and 20 °C following temperature equilibration for 1 h prior to the start of the experiment. […] We, therefore, present these SV-AUC data as relative sedimenting populations with their experimentally observed S values. Absorbance data were collected at 280 nm. SedFIT was used to model the sedimentation coefficient distributions [c(s) analysis] for each experiment[38],[39]. Data were then refined using the c(s) with a conformational change model to better estimate the relative populations observed for PPM1D1–420. SedNTerp was used to calculate protein parameters. Images were generated using GUSSI[41].

[4] = ITC stoichiometry, average of 2 trials

Cc1ncc(Cl)cc1NCc1ccc(C(=O)N[C@@H](CC2CCCC2)C(=O)NC2CC2)s1 [GSK2830371]
N Average [1, 4]: 1.11
DH Average ([1]; ITC, average of 2 trials): -14.43 kcal/mol
DS Average ([1]; ITC, average of 2 trials): -12.15 cal/mol/deg
pKd ([1]; ITC, average of 2 trials, read-out: Kd Average): 7.93
DH ([1]; ITC, individual trials): -14.15 kcal/mol and -14.71 kcal/mol
DS ([1]; ITC, individual trials): -11.3 cal/mol/deg and -13 cal/mol/deg
pKd ([1]; ITC, individual trials, read-out: Kd): 7.91 and 7.94
N Average [2, 4]: 0.8785
DH Average ([2]; ITC, average of 2 trials): -3.817 kcal/mol
DS Average ([2]; ITC, average of 2 trials): 13.65 cal/mol/deg
DH ([2]; ITC, individual trials): -3.047 kcal/mol and -4.587 kcal/mol
DS ([2]; ITC, individual trials): 16.6 cal/mol/deg and 10.7 cal/mol/deg
sedimentation peak (SV-AUC) in presence of compound [3]: 2.69 S
